Results published in publication PMC6001238, “Iterative Chemical Engineering of Vancomycin Leads to Novel Vancomycin Analogs With a High in Vitro Therapeutic Index” (Frontiers in Microbiology, 2018).
Values after ≈ are worked out from the molar mass of the structure shown.

Experiments:
E. faecalis VSE 1 = experiment: MIC, broth microdilution, vancomycin-sensitive E. faecalis (VSE 1); type: cell-based, Enterococcus faecalis; details: for MIC: Enterococcus faecalis VSE 1 (vancomycin-sensitive), read-out: MIC; for MIC-fold improvement vs. vancomycin: VSE 1, ratio of MIC of vancomycin and MIC of analogue
Description: (§1) The minimum inhibitory concentration (MIC) was determined using the broth microdilution method according to the antimicrobial susceptibility testing standards of the clinical and laboratory standards institute ([Clinical and Laboratory Standards Institute [CLSI], 2012]). Ultrapure water and non-inoculated broth were used as controls. In one case, a final concentration of 10 μM vancomycin was included with the vancomycin analog or control antibiotic.

E. faecalis VRE 6 = experiment: MIC, broth microdilution, vancomycin-resistant E. faecalis VRE 6 (VanA); type: cell-based, Enterococcus faecalis; details: for MIC: Enterococcus faecalis VRE 6 (vancomycin-resistant), read-out: MIC; for MIC-fold improvement vs. vancomycin: VRE 6, ratio of MIC of vancomycin and MIC of analogue
Description: as §1

E. faecalis VRE 53 = experiment: MIC, broth microdilution, vancomycin-resistant E. faecalis VRE 53 (VanA); type: cell-based, Enterococcus faecalis; details: for MIC: Enterococcus faecalis VRE 53 (vancomycin-resistant), read-out: MIC; for MIC-fold improvement vs. vancomycin: VRE 53, ratio of MIC of vancomycin and MIC of analogue
Description: as §1

E. faecalis VRE 29 = experiment: MIC, broth microdilution, vancomycin-resistant E. faecalis VRE 29 (VanA); type: cell-based, Enterococcus faecalis; details: for MIC: Enterococcus faecalis VRE 29 (vancomycin-resistant), read-out: MIC; for MIC-fold improvement vs. vancomycin: VRE 29, ratio of MIC of vancomycin and MIC of analogue
Description: as §1

E. faecalis VRE 37 = experiment: MIC, broth microdilution, vancomycin-resistant E. faecalis VRE 37 (VanA); type: cell-based, Enterococcus faecalis; details: for MIC: Enterococcus faecalis VRE 37 (vancomycin-resistant), read-out: MIC; for MIC-fold improvement vs. vancomycin: VRE 37, ratio of MIC of vancomycin and MIC of analogue
Description: as §1

[1] = tested on: Murine leukemia (L1210) cells; experiment: Cytostatic activity, L1210 cell proliferation; type: cell-based; details: mean ± SD of three experiments; highest concentration tested 250 µM; 2 days; read-out: Toxicity (IC50) L1210
Description: (§2) Murine leukemia (L1210), human T-lymphocyte (CEM) and the human cervix carcinoma (HeLa) cell line were suspended at 300,000–500,000 cells/mL of culture medium, and 100 μL of a cell suspension was added to 100 μL of an appropriate dilution of the test compounds in wells of 96-well microtiter plates. After incubation at 37°C for 2 (L1210), 3 (CEM), or 4 (HeLa) days, the cell number was determined using a Coulter counter. The IC50 was defined per cell type as the compound concentration required to inhibit cell proliferation by 50% compared to the negative control ([Glowacka et al., 2017]).

[2] = tested on: human T-lymphocyte (CEM) cells; experiment: Cytostatic activity, CEM cell proliferation; type: cell-based; details: mean ± SD of three experiments; highest concentration tested 250 µM; 3 days; read-out: Toxicity (IC50) CEM
Description: as §2

[3] = tested on: human cervix carcinoma (HeLa) cells; experiment: Cytostatic activity, HeLa cell proliferation; type: cell-based; details: mean ± SD of three experiments; highest concentration tested 250 µM; 4 days; read-out: Toxicity (IC50) HeLa
Description: as §2

[4] = tested on: L1210, CEM and HeLa cell lines; experiment: Cytostatic activity, average or summary over L1210, CEM and HeLa; type: cell-based; details: average of L1210, CEM and HeLa; read-out: Toxicity (IC50) Average
Description: as §2

[5] = tested on: S. aureus VSSA (ATCC 6538); experiment: MIC, broth microdilution, vancomycin-sensitive S. aureus (VSSA/MSSA, ATCC 6538); type: cell-based, Staphylococcus aureus; details: for MIC: Staphylococcus aureus VSSA, read-out: MIC; for MIC-fold improvement vs. vancomycin: VSSA, ratio of MIC of vancomycin and MIC of analogue
Description: as §1

S. aureus VISA/HIP5827 = experiment: MIC, broth microdilution, vancomycin-intermediate S. aureus VISA HIP5827; type: cell-based, Staphylococcus aureus; details: for MIC: Staphylococcus aureus VISA/HIP5827, read-out: MIC; for MIC-fold improvement vs. vancomycin: VISA/HIP5827, ratio of MIC of vancomycin and MIC of analogue
Description: as §1

MRSA KS2 = experiment: MIC, broth microdilution, MRSA KS2; type: cell-based, Staphylococcus aureus
Description: as §1

MRSA KS6 = experiment: MIC, broth microdilution, MRSA KS6; type: cell-based, Staphylococcus aureus
Description: as §1

MRSA KS89 = experiment: MIC, broth microdilution, MRSA KS89; type: cell-based, Staphylococcus aureus; details: for MIC-fold improvement vs. vancomycin: MRSA KS8, ratio of MIC of vancomycin and MIC of analogue; for MIC: Staphylococcus aureus MRSA KS8, read-out: MIC
Description: as §1

MRSA KS1 = experiment: MIC, broth microdilution, MRSA KS1; type: cell-based, Staphylococcus aureus
Description: as §1

S. aureus VRSA = experiment: MIC, broth microdilution, vancomycin-resistant S. aureus (VRSA); type: cell-based, Staphylococcus aureus; details: for MIC: Staphylococcus aureus VRSA, read-out: MIC; for MIC-fold improvement vs. vancomycin: VRSA, ratio of MIC of vancomycin and MIC of analogue
Description: as §1

Row | MIC (E. faecalis VSE 1) [µM] | MIC-fold improvement vs. vancomycin (E. faecalis VSE 1) | MIC (E. faecalis VRE 6) [µM] | MIC-fold improvement vs. vancomycin (E. faecalis VRE 6) | MIC (E. faecalis VRE 53) [µM] | MIC-fold improvement vs. vancomycin (E. faecalis VRE 53) | MIC (E. faecalis VRE 29) [µM] | MIC-fold improvement vs. vancomycin (E. faecalis VRE 29) | MIC (E. faecalis VRE 37) [µM] | MIC [5] [µM] | MIC-fold improvement vs. vancomycin [5] | MIC (S. aureus VISA/HIP5827) [µM] | MIC-fold improvement vs. vancomycin (S. aureus VISA/HIP5827) | MIC-fold improvement vs. vancomycin (MRSA KS89) | MIC (MRSA KS89) [µM] | MIC-fold improvement vs. vancomycin (E. faecalis VRE 37) | Compound | IC50 [1] [µM] | IC50 [2] [µM] | IC50 [3] [µM] | IC50 [4] [µM] | other results
1 | 0.78 (≈ 1.29 µg/mL) | 2 | 3.13 (≈ 5.16 µg/mL) | 64 | 3.13 (≈ 5.16 µg/mL) | 128 | 3.13 (≈ 5.16 µg/mL) | 128 | 3.13 (≈ 5.16 µg/mL) | 0.78 (≈ 1.29 µg/mL) | 1 | 0.39 (≈ 0.643 µg/mL) | 16 |  |  | 128 | CCCC#Cc1ccc(NC(=O)CNC(=O)C2NC(=O)C3NC(=O)C(NC(=O)C4NC(=O)C(CC(N)=O)NC(=O)C(NC(=O)C(CC(C)C)NC)C(O)c5ccc(c(Cl)c5)Oc5cc4cc(c5OC4OC(CO)C(O)C(O)C4OC4CC(C)(N)C(O)C(C)O4)Oc4ccc(cc4Cl)C3O)c3ccc(O)c(c3)-c3c(O)cc(O)cc32)cc1 (stereo not shown) [Vanc-68] | 42 ± 14 | 19 ± 1 | 55 ± 20 | 39 | MIC (S. aureus VRSA): 1.56 µM (≈ 2.57 µg/mL); MIC-fold improvement vs. vancomycin (S. aureus VRSA): 64
2 | 0.78 (≈ 1.54 µg/mL) | 2 | 3.13 (≈ 6.19 µg/mL) | 64 | 50 (≈ 98.9 µg/mL) | 8 | 50 (≈ 98.9 µg/mL) | 8 | 50 (≈ 98.9 µg/mL) | 0.78 (≈ 1.54 µg/mL) | 1 | 3.13 (≈ 6.19 µg/mL) | 2 | 1 | 0.78 (≈ 1.54 µg/mL) | 8 | CNC(CC(C)C)C(=O)NC1C(=O)NC(CC(N)=O)C(=O)NC2C(=O)NC3C(=O)NC(C(=O)NC(C(=O)NCC(=O)Nc4ccc(-c5cnnn5C5OC(COC(C)=O)C(OC(C)=O)C(OC(C)=O)C5OC(C)=O)cc4)c4cc(O)cc(O)c4-c4cc3ccc4O)C(O)c3ccc(c(Cl)c3)Oc3cc2cc(c3OC2OC(CO)C(O)C(O)C2OC2CC(C)(N)C(O)C(C)O2)Oc2ccc(cc2Cl)C1O (stereo not shown) [Vanc-78] | > 250 | > 250 | 57 ± 32 | 186 | MIC (S. aureus VRSA): 3.13 µM (≈ 6.19 µg/mL); MIC-fold improvement vs. vancomycin (S. aureus VRSA): 32
3 | 1.56 | 1 | 6.25 | 32 | 50 | 8 | 50 | 8 | 50 | 0.78 | 1 | 6.25 | 1 | 1 | 0.78 | 8 | CCCCC[N+](C)(C)CCCNC(=O)c1ccc(NC(=O)CNC(=O)C2NC(=O)C3NC(=O)C(NC(=O)C4NC(=O)C(CC(N)=O)NC(=O)C(NC(=O)C(CC(C)C)NC)C(O)c5ccc(c(Cl)c5)Oc5cc4cc(c5OC4OC(CO)C(O)C(O)C4OC4CC(C)(N)C(O)C(C)O4)Oc4ccc(cc4Cl)C3O)c3ccc(O)c(c3)-c3c(O)cc(O)cc32)cc1 (stereo not shown) [Vanc-80] | 230 ± 3 | > 250 | 238 | 239 | MIC (S. aureus VRSA): 1.56 µM; MIC-fold improvement vs. vancomycin (S. aureus VRSA): 64
4 | 0.78 | 2 | ≤0.39 | >512 | 25 | 16 | 25 | 16 | 25 | 0.39 | 2 | 6.25 | 1 | 4 | 0.20 | 16 | CCCCCCCC[N+](C)(C)CCCNC(=O)c1ccc(NC(=O)CNC(=O)C2NC(=O)C3NC(=O)C(NC(=O)C4NC(=O)C(CC(N)=O)NC(=O)C(NC(=O)C(CC(C)C)NC)C(O)c5ccc(c(Cl)c5)Oc5cc4cc(c5OC4OC(CO)C(O)C(O)C4OC4CC(C)(N)C(O)C(C)O4)Oc4ccc(cc4Cl)C3O)c3ccc(O)c(c3)-c3c(O)cc(O)cc32)cc1 (stereo not shown) [Vanc-81] | 164 ± 6 | > 250 | 122 ± 13 | 179 | MIC (S. aureus VRSA): 0.78 µM; MIC-fold improvement vs. vancomycin (S. aureus VRSA): 128

Row | Compound | MIC (E. faecalis VSE 1) [µM] | MIC-fold improvement vs. vancomycin (E. faecalis VSE 1) | MIC (E. faecalis VRE 6) [µM] | MIC-fold improvement vs. vancomycin (E. faecalis VRE 6) | MIC (E. faecalis VRE 53) [µM] | MIC-fold improvement vs. vancomycin (E. faecalis VRE 53) | MIC (E. faecalis VRE 29) [µM] | MIC-fold improvement vs. vancomycin (E. faecalis VRE 29) | MIC (E. faecalis VRE 37) [µM] | MIC [5] [µM] | MIC-fold improvement vs. vancomycin [5] | MIC (S. aureus VISA/HIP5827) [µM] | MIC-fold improvement vs. vancomycin (S. aureus VISA/HIP5827) | MIC-fold improvement vs. vancomycin (MRSA KS89) | MIC (MRSA KS89) [µM] | MIC-fold improvement vs. vancomycin (E. faecalis VRE 37) | IC50 [1] [µM] | IC50 [2] [µM] | IC50 [3] [µM] | IC50 [4] [µM] | other results
5 | CN[C@H](CC(C)C)C(=O)N[C@H]1C(=O)N[C@@H](CC(N)=O)C(=O)N[C@H]2C(=O)N[C@H]3C(=O)N[C@H](C(=O)N[C@H](C(=O)NCCNC(=O)/C=C/c4ccc(OC)cc4)c4cc(O)cc(O)c4-c4cc3ccc4O)[C@H](O)c3ccc(c(Cl)c3)Oc3cc2cc(c3O[C@@H]2O[C@H](CO)[C@@H](O)[C@H](O)[C@H]2O[C@H]2C[C@](C)(N)[C@H](O)[C@H](C)O2)Oc2ccc(cc2Cl)[C@H]1O [Vanc-36] | 0.39 (≈ 0.644 µg/mL) | 4 | 1.56 (≈ 2.58 µg/mL) | 128 | 50 (≈ 82.6 µg/mL) | 8 | 12.5 (≈ 20.6 µg/mL) | 32 | 12.5 (≈ 20.6 µg/mL) | 0.39 (≈ 0.644 µg/mL) | 2 | 0.39 (≈ 0.644 µg/mL) | 16 | 1 | 0.78 (≈ 1.29 µg/mL) |  | > 250 | > 250 | 89 ± 18 | 196 | MIC-fold improvement vs. vancomycin (MRSA KS2; MRSA KS2, ratio of MIC of vancomycin and MIC of analogue): 2; MIC (MRSA KS2; Staphylococcus aureus MRSA KS2, read-out: MIC): 0.39 µM (≈ 0.644 µg/mL); MIC-fold improvement vs. vancomycin (MRSA KS6; MRSA KS6, ratio of MIC of vancomycin and MIC of analogue): 2; MIC (MRSA KS6; Staphylococcus aureus MRSA KS6, read-out: MIC): 0.39 µM (≈ 0.644 µg/mL); MIC-fold improvement vs. vancomycin (MRSA KS1; MRSA KS1, ratio of MIC of vancomycin and MIC of analogue): 1; MIC (MRSA KS1; Staphylococcus aureus MRSA KS1, read-out: MIC): 0.78 µM (≈ 1.29 µg/mL)
6 | CNC(CC(C)C)C(=O)NC1C(=O)NC(CC(N)=O)C(=O)NC2C(=O)NC3C(=O)NC(C(=O)NC(C(=O)NCC(=O)Nc4ccc(C(=O)NCCCN(C)C)cc4)c4cc(O)cc(O)c4-c4cc3ccc4O)C(O)c3ccc(c(Cl)c3)Oc3cc2cc(c3OC2OC(CO)C(O)C(O)C2OC2CC(C)(N)C(O)C(C)O2)Oc2ccc(cc2Cl)C1O (stereo not shown) [Vanc-82] | 1.56 (≈ 2.67 µg/mL) | 1 | 6.25 (≈ 10.7 µg/mL) | 32 | 50 (≈ 85.5 µg/mL) | 8 | >50 | <8 | >50 | 1.56 (≈ 2.67 µg/mL) | 0.5 | >12.5 | <0.5 | 1 | 0.78 (≈ 1.33 µg/mL) | <8 | > 250 | > 250 | > 250 | > 250 | MIC (S. aureus VRSA): 3.13 µM (≈ 5.35 µg/mL); MIC-fold improvement vs. vancomycin (S. aureus VRSA): 32
